Entries after “also recorded” stand apart in the source; their conditions may differ.
Tests used:
IGF-1R and IR = experiment: Biochemical potency against IGF-1R and IR; details: comparison of IGF-1R and IR
IGF-1R = molecular target: T1, IGF-1R (Homo sapiens, UniProt P08069); experiment: IGF-1R phosphorylation (pIGF-1R) in tumor cells, RTK capture array; format: cell-based; details: OSI-906 3 uM, 24 hours
T1 construct: endogenous in cells; host or cells: A673, H322, HT-29 tumor cells
Text: The media was removed, cells were washed two times with PBS, and cells were lysed as previously described.

Akt pathway = experiment: Downstream signaling (pAkt, pErk) in tumor cell lysates, Western blotting; format: cell-based, human; details: H322 NSCLC and HT-29 CRC cells; OSI-906 3 uM or MAB-391 2 ug/ml; 24 hours
Description: Cell extracts were prepared by detergent lysis (50 mM Tris-HCl, pH 8.0, 150 mM NaCl, 1% NP-40, 0.5% sodium deoxycholate, 0.1% SDS, containing protease inhibitor (P8340, Sigma, St. Louis, Mo.) and phosphatase inhibitor (P5726, Sigma, St. Louis, Mo.) cocktails. The soluble protein concentration was determined by micro-BSA assay (Pierce, Rockford Ill.). Protein immunodetection was performed by electrophoretic transfer of SDS-PAGE separated proteins to nitrocellulose, incubation with antibody, and chemiluminescent second step detection (PicoWest; Pierce, Rockford, Ill.). The antibodies included: phospho-Akt(473) and total Akt. Both antibodies were obtained from Cell Signaling Technology, Inc. (Danvers, Mass.). For analysis of an agent's effect on the phosphorylation of downstream signaling proteins, cell lines were grown to approximately 70% confluency, at which time the indicated agent was added at the indicated concentration, and cells were incubated at 37° C. for 24 hours. The media was removed, cells were washed two times with PBS, and cells were lysed as previously described.

T1 sequence (P08069 31-1367): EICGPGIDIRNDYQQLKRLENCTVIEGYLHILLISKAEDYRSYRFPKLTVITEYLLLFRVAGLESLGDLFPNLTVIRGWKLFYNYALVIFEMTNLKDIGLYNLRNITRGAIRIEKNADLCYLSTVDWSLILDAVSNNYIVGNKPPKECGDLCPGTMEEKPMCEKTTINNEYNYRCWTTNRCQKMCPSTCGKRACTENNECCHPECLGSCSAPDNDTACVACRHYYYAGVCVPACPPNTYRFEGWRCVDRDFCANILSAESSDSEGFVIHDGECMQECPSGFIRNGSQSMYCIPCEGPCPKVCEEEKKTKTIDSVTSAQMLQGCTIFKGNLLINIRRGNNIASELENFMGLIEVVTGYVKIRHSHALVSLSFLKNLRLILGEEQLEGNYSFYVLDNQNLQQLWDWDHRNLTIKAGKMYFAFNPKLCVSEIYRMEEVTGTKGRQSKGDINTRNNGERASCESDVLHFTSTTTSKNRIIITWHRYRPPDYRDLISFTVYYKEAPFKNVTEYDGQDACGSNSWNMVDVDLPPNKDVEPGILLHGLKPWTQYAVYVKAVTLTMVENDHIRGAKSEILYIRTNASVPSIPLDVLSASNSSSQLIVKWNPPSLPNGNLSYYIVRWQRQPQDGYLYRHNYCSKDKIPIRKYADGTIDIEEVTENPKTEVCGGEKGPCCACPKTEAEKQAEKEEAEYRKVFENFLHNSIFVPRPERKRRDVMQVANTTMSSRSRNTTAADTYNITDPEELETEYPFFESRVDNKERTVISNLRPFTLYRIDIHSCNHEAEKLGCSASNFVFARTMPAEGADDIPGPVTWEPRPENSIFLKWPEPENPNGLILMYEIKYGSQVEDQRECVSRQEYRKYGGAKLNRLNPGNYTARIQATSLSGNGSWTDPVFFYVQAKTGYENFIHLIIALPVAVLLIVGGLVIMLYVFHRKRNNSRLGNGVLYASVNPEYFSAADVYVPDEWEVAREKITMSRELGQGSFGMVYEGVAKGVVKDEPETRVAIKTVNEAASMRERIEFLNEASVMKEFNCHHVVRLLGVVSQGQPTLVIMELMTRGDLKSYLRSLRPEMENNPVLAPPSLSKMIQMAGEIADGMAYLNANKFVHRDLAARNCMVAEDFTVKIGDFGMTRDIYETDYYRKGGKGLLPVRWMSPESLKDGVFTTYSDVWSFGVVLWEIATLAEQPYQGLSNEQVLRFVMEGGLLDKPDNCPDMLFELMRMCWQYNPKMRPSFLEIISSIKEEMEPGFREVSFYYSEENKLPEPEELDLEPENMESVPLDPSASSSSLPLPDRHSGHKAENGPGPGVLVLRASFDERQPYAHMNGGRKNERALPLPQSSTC

Compound: C[C@]1(O)C[C@@H](c2nc(-c3ccc4ccc(-c5ccccc5)nc4c3)c3c(N)nccn32)C1 [OSI-906, cis-3-[8-amino-1-(2-phenyl-quinolin-7-yl)-imidazo[1,5-a]pyrazin-3-yl]-1-methyl-cyclobutanol]
- biochemical potencies against IGF-1R and IR (IGF-1R and IR): similar
- inhibition of IGF-1R (pIGF-1R) (IGF-1R; A673 Ewing's Sarcoma cells): inhibits both IR and IGF-1R
- inhibition of pIGF-1R (IGF-1R; H322 and HT-29 cells (FIG. 2)): robust inhibition of both pIR and pIGF-1R
- inhibition of the Akt pathway (pAkt) (Akt pathway): greater blockade of the Akt pathway; also recorded: greater capacity to inhibit the Akt pathway
